Measured values: PMC7948418, “Genetic and biased agonist-mediated reductions in β-arrestin recruitment prolong cAMP signaling at glucagon family receptors” (The Journal of Biological Chemistry, 2020)
Square brackets hold non-standard residues; d marks the D form. Ends that are not written are not given here.

T1: GIPR (Homo sapiens, UniProt P48546)
T1 sequence (P48546 22-466): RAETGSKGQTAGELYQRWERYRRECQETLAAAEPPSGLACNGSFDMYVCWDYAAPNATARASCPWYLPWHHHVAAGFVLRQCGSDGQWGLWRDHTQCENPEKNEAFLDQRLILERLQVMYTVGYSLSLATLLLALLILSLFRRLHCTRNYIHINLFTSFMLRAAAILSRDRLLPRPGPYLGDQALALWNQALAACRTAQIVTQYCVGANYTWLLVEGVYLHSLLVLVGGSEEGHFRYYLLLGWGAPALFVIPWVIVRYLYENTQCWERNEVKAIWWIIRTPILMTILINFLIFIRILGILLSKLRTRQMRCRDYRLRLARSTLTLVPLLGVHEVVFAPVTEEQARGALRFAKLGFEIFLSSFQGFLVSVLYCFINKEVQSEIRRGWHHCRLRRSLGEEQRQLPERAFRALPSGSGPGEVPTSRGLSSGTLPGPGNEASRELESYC

T2: GIPR-SmBiT (UniProt P48546)
T2 sequence: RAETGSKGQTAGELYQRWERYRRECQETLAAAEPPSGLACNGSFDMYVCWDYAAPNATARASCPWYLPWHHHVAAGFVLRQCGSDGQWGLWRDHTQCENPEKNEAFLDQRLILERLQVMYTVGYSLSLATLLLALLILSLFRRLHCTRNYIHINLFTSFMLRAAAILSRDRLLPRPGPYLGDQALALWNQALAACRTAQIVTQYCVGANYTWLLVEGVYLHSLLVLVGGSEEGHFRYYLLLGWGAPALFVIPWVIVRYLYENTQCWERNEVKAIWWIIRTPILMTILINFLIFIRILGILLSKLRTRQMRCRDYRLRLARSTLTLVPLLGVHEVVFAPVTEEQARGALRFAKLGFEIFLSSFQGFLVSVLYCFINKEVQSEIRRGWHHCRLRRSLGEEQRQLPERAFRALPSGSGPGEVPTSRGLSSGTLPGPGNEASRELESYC


Tests used:
GLP-1R [1] = target: T3, GLP-1R (Homo sapiens, UniProt P43220); assay: cAMP response (HTRF) in PathHunter CHO-GLP-1R cells; type: cell-based; conditions: read-out: cAMP Emax (% GLP-1)
GLP-1R [2] = target: T3, GLP-1R; assay: β-arrestin-2 recruitment by enzyme fragment complementation (PathHunter) CHO-GLP-1R; type: cell-based; conditions: read-out: βarr2 Emax (% GLP-1)
GIPR [3] = target: T1, GIPR; assay: cAMP response (HTRF) in PathHunter CHO-GIPR cells; type: cell-based; conditions: for Emax: read-out: cAMP Emax (% GIP)
GIPR [4] = target: T1, GIPR; assay: β-arrestin-2 recruitment by enzyme fragment complementation (PathHunter) CHO-GIPR; type: cell-based; conditions: for Emax: read-out: βarr2 Emax (% GIP)
GIPR-SmBiT [5] = target: T2, GIPR-SmBiT; assay: split reporter (BiFC, NanoBiT); NanoBiT complementation in HEK293T cells co-transfected with receptor-SmBiT and LgBiT-tagged effector; furimazine; 37 °C; baseline 5 min, then 100 nM cognate agonist (GLP-1, GIP or GCG) or vehicle, luminescence over 30 min, normalised to baseline and vehicle
GLP-1R-SmBiT = GLP-1R-SmBiT (UniProt P43220); assay: as above
GIPR-SmBiT [6] = target: T2, GIPR-SmBiT
GIPR-SmBiT [7] = target: T2, GIPR-SmBiT; remark: listed apart in the source

T3 sequence (P43220 24-463): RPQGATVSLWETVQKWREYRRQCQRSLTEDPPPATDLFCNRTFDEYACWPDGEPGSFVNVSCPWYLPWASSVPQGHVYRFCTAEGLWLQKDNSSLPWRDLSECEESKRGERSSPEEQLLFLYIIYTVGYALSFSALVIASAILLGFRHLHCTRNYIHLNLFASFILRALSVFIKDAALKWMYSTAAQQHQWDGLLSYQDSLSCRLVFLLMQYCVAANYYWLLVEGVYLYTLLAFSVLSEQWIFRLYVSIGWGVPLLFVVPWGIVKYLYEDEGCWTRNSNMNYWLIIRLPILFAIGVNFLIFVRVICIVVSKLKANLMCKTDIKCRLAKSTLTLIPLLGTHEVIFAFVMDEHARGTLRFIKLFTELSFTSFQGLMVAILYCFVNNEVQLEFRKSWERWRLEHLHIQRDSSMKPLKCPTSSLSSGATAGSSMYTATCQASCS
Sequence of GLP-1R-SmBiT (P43220 24-463): as above

Molecule | EC50 (GIPR [3]) | Emax (GIPR [3]) | EC50 (GIPR [4]) | Emax (GIPR [4]) | also measured
CC[C@H](C)[C@H](NC(=O)[C@H](Cc1ccccc1)NC(=O)[C@H](CCC(=O)O)NC(=O)[C@H](CCCCN)NC(=O)[C@H](C)NC(=O)[C@H](C)NC(=O)[C@H](CCC(N)=O)NC(=O)CNC(=O)[C@H](CCC(=O)O)NC(=O)[C@H](CC(C)C)NC(=O)[C@H](Cc1ccc(O)cc1)NC(=O)[C@H](CO)NC(=O)[C@H](CO)NC(=O)[C@@H](NC(=O)[C@H](CC(=O)O)NC(=O)[C@H](CO)NC(=O)[C@@H](NC(=O)[C@H](Cc1ccccc1)NC(=O)[C@@H](NC(=O)CNC(=O)[C@H](CCC(=O)O)NC(=O)CNC(=O)[C@@H](N)Cc1c[nH]cn1)[C@@H](C)O)[C@@H](C)O)C(C)C)C(=O)N[C@@H](C)C(=O)N[C@@H](Cc1c[nH]c2ccccc12)C(=O)N[C@@H](CC(C)C)C(=O)N[C@H](C(=O)N[C@@H](CCCCN)C(=O)NCC(=O)N[C@@H](CCCNC(=N)N)C(N)=O)C(C)C [GLP-1-Gly2] | – | – | – | – | Emax (GLP-1R [1]): 95 ± 4%; Emax (GLP-1R [2]): 93 ± 3%
CC[C@H](C)[C@H](NC(=O)[C@H](Cc1ccccc1)NC(=O)[C@H](CCC(=O)O)NC(=O)[C@H](CCCCN)NC(=O)[C@H](C)NC(=O)[C@H](C)NC(=O)[C@H](CCC(N)=O)NC(=O)CNC(=O)[C@H](CCC(=O)O)NC(=O)[C@H](CC(C)C)NC(=O)[C@H](Cc1ccc(O)cc1)NC(=O)[C@H](CO)NC(=O)[C@H](CO)NC(=O)[C@@H](NC(=O)[C@H](CC(=O)O)NC(=O)[C@H](CO)NC(=O)[C@@H](NC(=O)[C@H](Cc1ccccc1)NC(=O)[C@@H](NC(=O)CNC(=O)[C@@H](CCC(N)=O)NC(=O)[C@H](C)NC(=O)[C@@H](N)Cc1c[nH]cn1)[C@@H](C)O)[C@@H](C)O)C(C)C)C(=O)N[C@@H](C)C(=O)N[C@@H](Cc1c[nH]c2ccccc12)C(=O)N[C@@H](CC(C)C)C(=O)N[C@H](C(=O)N[C@@H](CCCCN)C(=O)NCC(=O)N[C@@H](CCCNC(=N)N)C(N)=O)C(C)C [GLP-1-dGln3] | – | – | – | – | Emax (GLP-1R [1]; 30-min stimulation, 37 °C, no phosphodiesterase inhibitors, 4-parameter fit, mean ± SEM, n = 5): 106 ± 5%; Emax (GLP-1R [2]; 30 min at 37 °C, 4-parameter fit, mean ± SEM, n = 5): 60 ± 4%
FAEGTFISDYSIAMDKIHQQDFVNWLLAQKGKKNDWKHNITQ [GIP-Phe1] | 2 nM | 99 ± 3% | 1000 nM | 65 ± 3% | –
LgBiT-mini-Gs | – | – | – | – | t1/2 of ligand-induced mini-Gs recruitment (GIPR-SmBiT [5]): 7.1 min; t1/2 of ligand-induced mini-Gs recruitment (GLP-1R-SmBiT): 1.5 min
YA[dQ]GTFISDYSIAMDKIHQQDFVNWLLAQKGKKNDWKHNITQ [GIP-dGln3] | 25.1 nM | 110 ± 4% | 316 nM | 23 ± 1% | –
YGEGTFISDYSIAMDKIHQQDFVNWLLAQKGKKNDWKHNITQ [GIP-Gly2] | 0.794 nM | 100 ± 4% | 316 nM | 66 ± 7% | –
YAEGTFISDYSIAMDKIHQQDFVNWLLAQKGKKNDWKHNITQ [GIP(1–42)] | – | – | – | – | cAMP (HTRF), Log EC50, 10 min stimulation, wildtype HEK293 cells transiently transfected with SNAP-GIPR (GIPR-SmBiT [6]): -9.4 Log EC50 (M); cAMP (HTRF), Log EC50, 10 min stimulation, β-arrestin-1/2 knockout HEK293 cells transiently transfected with SNAP-GIPR (GIPR-SmBiT [6]): -9.1 Log EC50 (M); cAMP (HTRF), Log EC50, 60 min stimulation, wildtype HEK293 cells transiently transfected with SNAP-GIPR (GIPR-SmBiT [6]): -9.6 Log EC50 (M); cAMP (HTRF), Log EC50, 60 min stimulation, β-arrestin-1/2 knockout HEK293 cells transiently transfected with SNAP-GIPR (GIPR-SmBiT [6]): -9.7 Log EC50 (M); cytoplasmic PKA activation (AKAR4-NES FRET, AUC), Log EC50, wildtype HEK293 cells co-transfected with SNAP-GIPR (GIPR-SmBiT [7]): -10.1 Log EC50 (M); cytoplasmic PKA activation (AKAR4-NES FRET, AUC), Log EC50, β-arrestin-1/2 knockout HEK293 cells co-transfected with SNAP-GIPR (GIPR-SmBiT [7]): -10.9 Log EC50 (M)
